For assay [1], the target named is T1, V1 Receptor Subtype in Human Platelet (Homo sapiens, UniProt P37288).
T1 construct: tissue Hudson Valley Blood Services, Westchester Medical Center, Valhalla, N.Y; host or cells: human platelets (frozen platelet rich plasma)
Nature of the assay: Binding to Vasopressin V1 receptor subtype in Human Platelet Membranes. Conditions: human platelet membranes. On the procedure:
Radioligand Binding Experiments with Human Platelet Membranes (a) Platelet Membrane Preparation: Frozen platelet rich plasma (PRP), (Platelet Source: Hudson Valley Blood Services, Westchester Medical Center, Valhalla, N.Y.) are thawed to room temperature. The tubes containing the PRP are centrifuged at 16,000×g for 10 min. at 4° C. and the supernatant fluid discarded. […] The suspension is recentrifuged at 16,000× g for 10 min. This washing step is repeated one more time. The wash discarded and the lysed pellets homogenized in low ionic strength buffer of Tris.HCl, 5.0 mM, pH 7.5 containing 5.0 mM EDTA. The homogenate is centrifuged at 39,000× g for 10 min. The resulting pellet is resuspended in Tris. […] The final pellet is resuspended in 50.0 mM Tris. HCl buffer pH 7.4 containing 120 mM NaCl and 5.0 mM KCl to give 1.0-2.0 mg protein per ml of suspension. […] Platelet Membranes […] Then add 20 μl of [^3 H]Ligand (Manning or […] Vasopressin), to give final concentrations ranging from 0.01 to 10.0 nM. Initiate the binding by adding 80.0 μl of platelet suspension (approx. 100 μg protein). Mix all reagents by pipetting the mixture up and down a few times. Non specific binding is measured in the presence of 1.0 μM of unlabeled ligand (Manning or […] Vasopressin). Let the mixture stand undisturbed at room temperature for ninety (90) min. Upon this time, rapidly filter off the incubate under vacuum suction over GF/B filters, using a Brandel Harvester. Determine the radioactivity caught on the filter disks by the addition of liquid scintillant and counting in a liquid scintillator.

The target in assay [2] is T2, Human V2 Vasopressin Receptor (Homo sapiens, UniProt P30518).
T2 construct: expressed in transfected cells; host or cells: mouse fibroblast cell line LV-2
T2 sequence (P30518 whole entry): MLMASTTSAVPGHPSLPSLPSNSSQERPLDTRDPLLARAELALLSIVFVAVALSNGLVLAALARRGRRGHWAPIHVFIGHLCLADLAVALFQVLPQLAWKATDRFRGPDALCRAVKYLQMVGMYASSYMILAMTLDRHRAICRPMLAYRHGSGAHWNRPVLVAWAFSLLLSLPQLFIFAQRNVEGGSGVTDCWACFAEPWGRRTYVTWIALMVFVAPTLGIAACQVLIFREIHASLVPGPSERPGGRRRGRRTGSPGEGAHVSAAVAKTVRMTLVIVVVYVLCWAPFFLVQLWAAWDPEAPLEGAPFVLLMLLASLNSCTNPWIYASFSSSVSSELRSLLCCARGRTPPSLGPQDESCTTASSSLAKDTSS
The assay can be described thus: Binding to Membranes of Mouse Fibroblast Cell Line (LV-2) Transfected with the cDNA Expressing the Human V2 Vasopressin Receptor. The note with it: LV-2 cell membranes, human V2; read-out: V2 IC50 (**). Here is the method: Binding to Membranes of Mouse Fibroblast Cell Line (LV-2) Transfected with the cDNA Expressing the Human V2 Vasopressin Receptor
Flasks of 175 ml capacity, containing attached cells grown to confluence, are cleared of culture medium by aspiration. The flasks containing the attached cells are rinsed with 2×5 ml of phosphate buffered saline (PBS) and the liquid aspirated off each time. Finally, 5 ml of an enzyme free dissociation Hank's based solution (Specialty Media, Inc., Lafayette, N.J.) is added and the flasks are left undisturbed for 2 min. The content of all flasks is. poured into a centrifuge tube and the cells pelleted at 300× g for 15 min. The Hank's based solution is aspirated off and the cells homogenized with a polytron at setting #6 for 10 sec in 10.0 mM Tris.HCl buffer, pH 7.4 containing 0.25M sucrose and 1.0 mM EDTA. The homogenate is centrifuged at 1500× g for 10 min to remove ghost membranes. The supernatant fluid is centrifuged at 100,000× g for 60 min. to pellet the receptor protein. Upon completion, the pellet is resuspended in a small volume of 50.0 mM Tris. HCl buffer, pH 7.4. The protein content is determined by the Lowry method and the receptor membranes are suspended in 50.0 mM Tris.HCl buffer containing 0.1 mM phenylmethylsulfonylfluoride (PMSF) and 0.2% bovine serum albumin (BSA) to give 2.5 mg receptor protein per ml of suspension.
Arginine^8, vasopressin (S.A. 75.0 Ci/mmole) at 0.8 nM and the reaction initiated by the addition of 80.0 μl of tissue membranes (200.0 μg tissue protein). The plates are left undisturbed on the bench top for 120 min to reach equilibrium. Non specific binding is assessed in the presence of 1.0 μM of unlabeled ligand, added in 20 μl volume. For test compounds, these are solubilized in 50% dimethylsulfoxide (DMSO) and added in 20.0 μl volume to a final incubation volume of 200 μl. Upon completion of binding, the content of each well is filtered off, using a Brandel® cell Harvester (Gaithersburg, Md.). The radioactivity trapped on the filter disk by the ligand-receptor complex is assessed by liquid scintillation counting in a Packard LS Counter, with an efficiency of 65% for tritium. The data are analyzed for IC50 values by the LUNDON-2 program for competition (LUNDON SOFTWARE, Ohio).

Assay [3] relates to Vasopressin V2. The assay can be described thus: Vasopressin V2 Antagonist Activity in Conscious Hydrated Rats. The assay is classed as in vivo, rat. Conditions: 10 mg/kg orally, AVP 0.4 μg/kg i.p. In outline: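 Four-hour urine output, osmolality and electrolytes (Na+, K+, Cl−) recorded in water-loaded rats (30 mL/kg deionized water orally) given AVP i.p. at 0.4 μg/kg. Test compounds were given orally at 0.1–100 mg/kg 1 h before AVP; 2–4 rats per compound.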

The target in assay [4] is T3, oxytocin receptors (Rattus norvegicus, UniProt P70536).
T3 construct: The uteri are dissected out, cleaned of fat and connective tissues; from tissue; host or cells: uterus of DES-treated female Sprague-Dawley rats
T3 sequence (P70536 1-388): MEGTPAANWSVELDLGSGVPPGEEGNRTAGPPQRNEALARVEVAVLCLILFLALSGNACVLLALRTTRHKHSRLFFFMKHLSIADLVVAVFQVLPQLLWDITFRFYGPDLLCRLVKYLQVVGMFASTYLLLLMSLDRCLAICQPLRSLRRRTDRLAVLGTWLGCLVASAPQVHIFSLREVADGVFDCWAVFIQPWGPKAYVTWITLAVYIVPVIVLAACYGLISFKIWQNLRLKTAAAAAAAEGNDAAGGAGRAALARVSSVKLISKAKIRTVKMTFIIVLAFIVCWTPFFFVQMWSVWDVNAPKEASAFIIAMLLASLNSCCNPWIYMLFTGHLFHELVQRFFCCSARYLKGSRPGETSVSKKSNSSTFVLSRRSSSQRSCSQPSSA
Nature of the assay: Oxytocin Receptor Binding. The note with it: for IC50: 1.0 nM [3H]oxytocin. In outline: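 IC50 is the concentration displacing 50% of 1.0 nM [3H]OT, incubated 60 min at 22 °C in pH 7.4 Tris/MgCl2 buffer plus protease inhibitors, then filtered. Receptor source: uterine membranes from rats given 0.3 mg/kg DES i.m. 18 h earlier. 1.0 uM cold OT defined non-specific binding.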

T1 sequence (P37288 whole entry): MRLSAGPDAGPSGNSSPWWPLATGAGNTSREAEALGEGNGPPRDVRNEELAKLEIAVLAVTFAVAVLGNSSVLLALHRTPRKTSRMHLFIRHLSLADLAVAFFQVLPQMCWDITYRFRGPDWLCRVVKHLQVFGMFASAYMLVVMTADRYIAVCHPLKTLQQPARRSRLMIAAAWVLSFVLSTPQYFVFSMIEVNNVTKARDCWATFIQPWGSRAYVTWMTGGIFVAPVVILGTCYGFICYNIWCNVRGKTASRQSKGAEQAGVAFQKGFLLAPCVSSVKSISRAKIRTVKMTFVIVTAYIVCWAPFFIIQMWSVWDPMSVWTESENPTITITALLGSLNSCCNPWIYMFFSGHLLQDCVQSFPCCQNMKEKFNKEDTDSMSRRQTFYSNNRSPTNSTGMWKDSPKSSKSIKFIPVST

One may read the IC50 as the concentration at which inhibition is half-maximal. Usually inhibition stands for the percentage by which the read-out fell short of the control. High values mean strong suppression, low ones little suppression. In the case of `O=C(Nc1ccc(C(=O)N2Cc3ccc(Cl)n3Cc3ccccc32)cc1)c1ccc(Cl)cc1Cl` [Example 54, N-[4-(3-Chloro-5H-pyrrolo[2,1-c]-[1,4]benzodiazepin-10(11H)yl-carbonyl)phenyl]-2,4-dichloro-benzamide], the half-inhibitory concentration (IC50) amounted to 310 nM in assay [1], 7 nM in assay [2] and 160 nM in assay [4]. Moreover, the Osmolality in assay [3] is recorded as 1275 mOsm/kg. Besides, in assay [3], the “Urine Volume” value is reported as 5 ml/4 hrs. Further, the inhibition at 10 µM in assay [4] ([3H]oxytocin) was found to be 94%.
On to `Cc1ccccc1C(=O)Nc1ccc(C(=O)N2Cc3ccnn3Cc3ccccc32)c(Cl)c1` [Example 519, N-[4-(4H-Pyrazolo[5,1-c][1,4]benzodiazepin-5(10H)-ylcarbonyl)-3-chlorophenyl]-2-methylbenzamide], for which the values for the IC50 in assay [1], in assay [2] and in assay [4] were 120 nM, 3.2 nM and 480 nM, respectively. Also, the Osmolality in assay [3] amounted to 399 mOsm/kg. Also, the “Urine Volume” value in assay [3] was 19.9 ml/4 hrs. Also, at 10 µM the inhibition in assay [4] ([3H]oxytocin) was 97%.
Regarding `O=C(Nc1ccc(C(=O)N2Cc3ccnn3Cc3ccccc32)c(Cl)c1)c1ccc(Cl)cc1Cl` [Example 520, N-[4-(4H-Pyrazolo[5,1-c][1,4]benzodiazepin-5(10H)-ylcarbonyl)-3-chlorophenyl]-2,4-dichlorobenzamide], the figures for the IC50 in assay [1], in assay [2] and in assay [4] were 850 nM, 4.4 nM and 2200 nM, respectively. In addition, the Osmolality in assay [3] came out at 394 mOsm/kg. The “Urine Volume” value in assay [3] is on record as 18.5 ml/4 hrs. In assay [4] ([3H]oxytocin), this molecule came in with an inhibition at 10 µM of 79%.
In the case of `CSc1ccccc1C(=O)Nc1ccc(C(=O)N2Cc3cccn3Cc3ccccc32)c(Cl)c1` [Example 524, N-[4-(5H-pyrrolo[2,1-c][1,4]benzodiazepin-10(11H)-ylcarbonyl)-3-chlorophenyl]-2-(thiomethylbenzamide)], the 50% inhibitory concentration (IC50) in assay [1] came out at 170 nM; in assay [2] it was 1.2 nM; in assay [4] it was 1800 nM. In assay [3], this molecule had an Osmolality of 528 mOsm/kg. In addition, the “Urine Volume” value in assay [3] is 10 ml/4 hrs. In addition, at 10 µM the inhibition in assay [4] ([3H]oxytocin) was 84%.
`O=C(Nc1ccc(C(=O)N2Cc3cccn3Cc3ccccc32)c(Cl)c1)c1ccccc1Cl` [Example 526, N-[4-(5H-pyrrolo[2,1-c][1,4]benzodiazepin-10(11H)-ylcarbonyl]-3-chlorophenyl]-2-chlorobenzamide]: the half-maximal inhibitory concentration (IC50) in assay [1] came out at 50 nM; in assay [2], 3.3 nM; in assay [4], 470 nM. In assay [3], this molecule returned an Osmolality of 455 mOsm/kg. Further, the “Urine Volume” value in assay [3] is recorded as 17.8 ml/4 hrs. In addition, the inhibition at 10 µM in assay [4] ([3H]oxytocin) stood at 97%.
`O=C(Nc1ccc(C(=O)N2Cc3cccn3Cc3ccccc32)c(Cl)c1)c1c(Cl)cccc1Cl` [Example 529, N-(4-(5H-pyrrolo[2,1-c][1,4]benzodiazepin-10(11H-)-ylcarbonyl]-3-chlorophenyl]-2,6-dichlorobenzamide]: the results for the 50% inhibitory concentration (IC50) in assay [1], in assay [2] and in assay [4] were 990 nM, 2 nM and 450 nM, respectively. The molecule further had an Osmolality in assay [3] of 569 mOsm/kg. Further, the “Urine Volume” value in assay [3] is 10.5 ml/4 hrs. Also, the inhibition at 10 µM in assay [4] ([3H]oxytocin) is 92%.
Take `O=C(Nc1ccc(C(=O)N2Cc3cccn3Cc3ccccc32)c(Cl)c1)c1cccc(F)c1` [Example 538, N-[4-(5H-pyrrolo[2,1-c][1,4]benzodiazepin-10(11H)-ylcarbonyl)-3-chlorophenyl]-3-fluorobenzamide]: the half-maximal inhibitory concentration (IC50) in assay [1] turned out to be 52 nM; in assay [2] it was 1 nM; in assay [4], 900 nM. In assay [4] ([3H]oxytocin), this molecule returned an inhibition at 10 µM of 90%.
For `Cc1c(F)cccc1C(=O)Nc1ccc(C(=O)N2Cc3cccn3Cc3ccccc32)cc1Cl` [Example 546, N-[4-(5H-pyrrolo[2,1-c][1,4]benzodiazepin-10(11H)-ylcarbonyl)-2-chlorophenyl]-3-fluoro-2-methylbenzamide], the IC50 in assay [1] was 66 nM; in assay [2], 73 nM; in assay [4], 990 nM. The molecule also registered an inhibition at 10 µM in assay [4] ([3H]oxytocin) of 91%.
For `Cc1ccc(F)cc1C(=O)Nc1ccc(C(=O)N2Cc3cccn3Cc3ccccc32)cc1Cl` [Example 547, N-[4-(5H-pyrrolo[2,1-c][1,4]benzodiazepin-10(11H)-ylcarbonyl)-2-chlorophenyl]-5-fluoro-2-methylbenzamide], the IC50 was found to be 16 nM in assay [1], 4 nM in assay [2] and 260 nM in assay [4]. Also, the inhibition at 5 µM in assay [4] (dose 5 μM, [3H]oxytocin) amounted to 97%.
With `O=C(Nc1ccc(C(=O)N2CCc3cccn3-c3ccccc32)c(Cl)c1)c1ccc(Cl)cc1Cl` [Example 609, N-[4-[(6,7-Dihydro-5H-pyrrolo[1,2-a]-[1,5]benzodiazepin-5-yl)carbonyl]-3-chlorophenyl]-2,4-dichlorobenzamide], the IC50 is 2400 nM in assay [1], 21 nM in assay [2] and 2700 nM in assay [4]. The inhibition at 10 µM in assay [4] ([3H]oxytocin) is 66%.
